Test results reported in US20260297070A1, “CYCLIC [COMPOUND LEFT OUT] WRN INHIBITORS” (Nimbus Wadjet, Inc., priority 2023, published 2026).

Target: T1, human Werner helicase (WRN-BV08, Uniprot Q14191, amino acids 517-1235 with L1074F point mutation) (Homo sapiens, UniProt Q14191, L1074F)
T1 construct: Uniprot Q14191, amino acids 517-1235 with L1074F point mutation; TEV-cleavable 8×His (C, cleaved yes); made in house; host or cells: Sf9 insect cells (baculovirus)
Test: WRN (BV08) ADP-Glo Assay
Type: biochemical
Settings: 0.15 nM WRN, 5 μM ATP, 0.1 nM DNA duplex, 15 min preincubation, 60 min at 25° C., pH 7.5, 1% DMSO; read-out: ADP-Glo_hWRN_IC50
Description: Example 2: WRN (BV08) ADP-Glo Assay Protocol
Bovine skin gelatin (BSG), dimethyl sulfoxide (DMSO), Pluronic F-127 and Tris(2-carboxyethyl)phosphine hydrochloride solution (TCEP) were purchased from Sigma-Aldrich at the highest level of purity possible. Bicine buffer solution was purchased from Alfa Aesar and compound NSC-617145 was purchased from Tocris. DNA duplex was synthesized at BGI (Shenzhen, China) and was composed of strand 1 with the sequence 5′-[…]-3′ (SEQ ID NO.: 1) and strand 2 with the sequence 5′-[…]-3′ (SEQ ID NO.: 2). DNA strands were annealed by heating to 95° C. for 5 minutes followed by slow cooling to room temperature. Compounds in 100% DMSO (0.1 μl) were spotted into a 384-well white polystyrene Optiplate-384 (Perkin Elmer) assay plate using a LabCyte Echo 550 (Agilent). DMSO (0.1 μl) was added to columns 12, rows A-H and column 24, rows I-P for the maximum signal control. Compound NSC-617145 (0.1 μl) was added to columns 12, rows I-P and 24, rows A-H for the minimum signal control (100% inhibition). Compounds/DMSO were preincubated for 15 minutes at 25° C. with 5 uL 2×WRN (BV08), prepared as described below, in assay buffer containing 20 mM Bicine (pH=7.5), 1 mM MgCl2, 10 mM KCl, 0.1% Pluronic F-127, 0.005% BSG, 1 mM TCEP. The reaction was initiated by the addition of 5 μl 2× substrate mixture in assay buffer and incubated for 60 minutes at 25° C. The final concentrations of the assay components were 0.15 nM WRN, 5 μM ATP, and 0.1 nM DNA duplex. The final DMSO concentration was 1% and the reference compound concentration (NSC-617145) used for the minimal signal control was 20 μM. The reaction was stopped by the addition of the ADP-Glo Kit components (Promega) as directed and the relative luminescence units (RLU) were read on an Envision 2104 (Perkin Elmer).
% Inhibition Calculation:
Where RLU=relative luminescence units, sample=signal in sample well, and MIN and MAX are the respective minimum and maximum signal controls.
Four-Parameter IC50 Fit Equation:
Where top and bottom are normally allowed to float but may be fixed at 100 or 0 respectively in a 3-parameter fit. Y is the % inhibition and X is the compound concentration.
Molecular Biology and virus production. The DNA encoding human Werner helicase (Uniprot Q14191, amino acids 517-1235 with L1074F point mutation) was generated with codon-optimization for E. coli expression and subcloned into the pFastBac vector with a TEV cleavable 8×His tag (WRN-BV08). The baculovirus from the expression plasmid WRN-BV08 was generated from transfection and amplification following the manufacturer's instructions.
Sf9 cells grown in SF900II media were infected with 1:200 WRN-BV08 P2 virus and incubated for protein expression for 72 h at 27° C. The WRN protein was purified using the following protocol. The cell pellets were thawed and resuspended in buffer A (50 mM Tris, pH 7.5, 500 mM NaCl, 1 mM TCEP, 10% Glycerol) supplemented with 0.5% CHAPS, 1 mM [COMPOUND LEFT OUT], 1 μg/mL Leupeptin, 1 μg/mL Pepstatin, and the Pierce Universal Nuclease and cocktail tablet. Cleared lysates were loaded onto a Ni Sepharose™ excel column and washed with buffer A and bound protein was eluted with buffer A supplemented with 300 mM imidazole. The eluted protein was dialyzed against buffer A and digested by His-tagged TEV (1:5 ratio) overnight at 4° C. ZnCl2 was added into the sample at final 15 μM before loading onto a second Ni Sepharose™ excel column. Untagged WRN protein was eluted from the column with buffer A supplemented with 20 mM imidazole, dialyzed overnight into buffer B (50 mM Tris, pH 7.5, 1 mM TCEP, 10% Glycerol) supplemented with 150 mM NaCl and loaded onto a Heparin column. Proteins were eluted with a step gradient of buffer B supplemented with 150 mM, 200 mM, 300 mM and 500 mM NaCl. […]

T1 sequence (Q14191 with tags, fused parts or gaps L1074F limits assumed): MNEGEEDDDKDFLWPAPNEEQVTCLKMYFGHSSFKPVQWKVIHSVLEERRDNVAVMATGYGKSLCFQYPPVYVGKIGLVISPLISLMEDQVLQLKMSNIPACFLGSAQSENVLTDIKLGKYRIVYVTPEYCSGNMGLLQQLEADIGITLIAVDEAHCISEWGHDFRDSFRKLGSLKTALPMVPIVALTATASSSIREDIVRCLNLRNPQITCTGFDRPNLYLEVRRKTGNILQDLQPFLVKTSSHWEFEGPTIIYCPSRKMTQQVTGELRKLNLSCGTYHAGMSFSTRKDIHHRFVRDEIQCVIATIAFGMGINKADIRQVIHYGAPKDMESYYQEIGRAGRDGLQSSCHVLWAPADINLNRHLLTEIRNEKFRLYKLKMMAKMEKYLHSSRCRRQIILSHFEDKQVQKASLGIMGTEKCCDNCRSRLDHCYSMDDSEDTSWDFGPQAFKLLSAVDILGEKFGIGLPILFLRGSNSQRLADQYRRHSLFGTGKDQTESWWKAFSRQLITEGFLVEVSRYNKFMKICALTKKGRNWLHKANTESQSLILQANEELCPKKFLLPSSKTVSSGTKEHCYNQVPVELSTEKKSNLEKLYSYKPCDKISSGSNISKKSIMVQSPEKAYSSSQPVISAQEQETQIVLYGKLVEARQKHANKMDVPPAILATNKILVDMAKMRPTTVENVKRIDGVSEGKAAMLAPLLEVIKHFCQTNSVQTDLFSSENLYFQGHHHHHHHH

IC50 | SMILES
> 50 µM | O=C(Cc1ccc2ncccc2c1)N(Cc1ccncc1)C1C=CS(=O)(=O)C1 (centres unmarked) [I-514, N-(1,1-dioxo-2,3-dihydro-1lambda6-thiophen-3-yl)-N-[(pyridin-4-yl)methyl]-2-(quinolin-6-yl)acetamide]
0.5 to 5 µM | COc1cc(CN(C(=O)C(OCc2cnn(C)c2)c2ccc(-c3ccc(F)c(F)c3)cc2F)[C@@H]2C=CS(=O)(=O)C2)ccn1 (single isomer, unassigned) [I-742, (2R*)-N-[(3R)-1,1-dioxo-2,3-dihydro-1lambda6-thiophen-3-yl]-N-[(2-methoxypyridin-4-yl)methyl]-2-[(1-methyl-1H-pyrazol-4-yl)methoxy]-2-{3,3′,4′-trifluoro-[1,1′-biphenyl]-4-yl}acetamide]
< 0.5 µM | O=C(Cc1ccc(-c2ccc(F)cc2)cc1F)N(Cc1nc(C2CC2)cs1)C1C=CS(=O)(=O)C1 (centres unmarked) [I-80, N-[(4-cyclopropyl-1,3-thiazol-2-yl)methyl]-2-{3,4′-difluoro-[1,1′-biphenyl]-4-yl}-N-(1,1-dioxo-2,3-dihydro-1lambda6-thiophen-3-yl)acetamide]
> 50 µM | Cc1ccnn1-c1ccc(CC(=O)N(Cc2ccncc2)C2C=CS(=O)(=O)C2)cc1 (centres unmarked) [I-441, N-(1,1-dioxo-2,3-dihydro-1lambda6-thiophen-3-yl)-2-[4-(5-methyl-1H-pyrazol-1-yl)phenyl]-N-[(pyridin-4-yl)methyl]acetamide]
> 50 µM | CN(C)C(=O)C(C(=O)N(Cc1ccncc1)C1C=CS(=O)(=O)C1)c1ccc(Br)cc1 (centres unmarked) [I-474, 2-(4-bromophenyl)-N′-(1,1-dioxo-2,3-dihydro-1lambda6-thiophen-3-yl)-N,N-dimethyl-N′-[(pyridin-4-yl)methyl]propanediamide]
10 to 50 µM | O=C(Cc1ccc(C(F)F)cc1)N(Cc1ccncc1)C1C=CS(=O)(=O)C1 (centres unmarked) [I-317, 2-[4-(difluoromethyl)phenyl]-N-(1,1-dioxo-2,3-dihydro-1lambda6-thiophen-3-yl)-N-[(pyridin-4-yl)methyl]acetamide]
< 0.5 µM | COC(C(=O)N(Cc1ccnc(C(C)(C)O)c1)C1C=CS(=O)(=O)C1)c1ccc(S(F)(F)(F)(F)F)cc1 (single isomer, unassigned) [I-664, (2R*)-N-[(3R**)-1,1-dioxo-2,3-dihydro-1lambda6-thiophen-3-yl]-N-{[2-(2-hydroxypropan-2-yl)pyridin-4-yl]methyl}-2-methoxy-2-[4-(pentafluoro-lambda6-sulfanyl)phenyl]acetamide]
0.5 to 5 µM | O=C(Cn1cc(-c2ccccc2)cn1)N(Cc1ccncc1)C1C=CS(=O)(=O)C1 (centres unmarked) [I-186, N-(1,1-dioxo-2,3-dihydro-1lambda6-thiophen-3-yl)-2-(4-phenyl-1H-pyrazol-1-yl)-N-[(pyridin-4-yl)methyl]acetamide]
0.5 to 5 µM | O=C(Cc1ccc(S(F)(F)(F)(F)F)cc1)N(Cc1ccc(=O)[nH]n1)C1C=CS(=O)(=O)C1 (centres unmarked) [I-817, N-(1,1-dioxo-2,3-dihydro-1lambda6-thiophen-3-yl)-N-[(6-oxo-1,6-dihydropyridazin-3-yl)methyl]-2-[4-(pentafluoro-lambda6-sulfanyl)phenyl]acetamide]
> 50 µM | COc1cc(CN(C(=O)C(OCc2cnn(C)c2)c2ccc(-c3ccc(F)c(F)c3)cc2F)[C@@H]2C=CS(=O)(=O)C2)ccn1 (single isomer, unassigned) [I-743, (2R*)-N-[(3R)-1,1-dioxo-2,3-dihydro-1lambda6-thiophen-3-yl]-N-[(2-methoxypyridin-4-yl)methyl]-2-[(1-methyl-1H-pyrazol-4-yl)methoxy]-2-{3,3′,4′-trifluoro-[1,1′-biphenyl]-4-yl}acetamide]
0.5 to 5 µM | CC(O)c1cc(CN(C(=O)Cc2ccc(-n3cccc3)cc2)C2C=CS(=O)(=O)C2)ccn1 (centres unmarked) [I-169, N-(1,1-dioxo-2,3-dihydro-1lambda6-thiophen-3-yl)-N-{[2-(1-hydroxyethyl)pyridin-4-yl]methyl}-2-[4-(1H-pyrrol-1-yl)phenyl]acetamide]
> 50 µM | O=C(N(Cc1ccncc1)C1C=CS(=O)(=O)C1)C(F)(F)n1cc(-c2ccccc2)nn1 (centres unmarked) [I-581, N-(1,1-dioxo-2,3-dihydro-1lambda6-thiophen-3-yl)-2,2-difluoro-2-(4-phenyl-1H-1,2,3-triazol-1-yl)-N-[(pyridin-4-yl)methyl]acetamide]
5 to 10 µM | CN(C)C(=O)C(C(=O)N(Cc1ccnc(C(C)(C)O)c1)C1C=CS(=O)(=O)C1)c1ccc(-c2ccc(F)cc2)cc1 (single isomer, unassigned) [I-271, (2R**)-N-[(3R*)-1,1-dioxo-2,3-dihydro-1lambda6-thiophen-3-yl]-2-{4′-fluoro-[1,1′-biphenyl]-4-yl}-N-{[2-(2-hydroxypropan-2-yl)pyridin-4-yl]methyl}-N′,N′-dimethylpropanediamide]
< 0.5 µM | COCCOC(C(=O)N(Cc1ccnc(C(C)(C)O)c1)[C@@H]1C=CS(=O)(=O)C1)c1ccc(-c2ccc(F)c(F)c2)cc1F (stereo partly drawn) [I-30, N-[(3R)-1,1-dioxo-2,3-dihydro-1lambda6-thiophen-3-yl]-N-{[2-(2-hydroxypropan-2-yl)pyridin-4-yl]methyl}-2-(2-methoxyethoxy)-2-{3,3′,4′-trifluoro-[1,1′-biphenyl]-4-yl}acetamide]
< 0.5 µM | CC(C)(O)c1cc(CN(C(=O)Cc2ccc(-c3ccc(F)c(F)c3)cc2F)C2C=CS(=O)(=O)C2)ccn1 (centres unmarked) [I-32, N-(1,1-dioxo-2,3-dihydro-1lambda6-thiophen-3-yl)-N-{[2-(2-hydroxypropan-2-yl)pyridin-4-yl]methyl}-2-{3,3′,4′-trifluoro-[1,1′-biphenyl]-4-yl}acetamide]
0.5 to 5 µM | O=C(Cn1cc(-c2ccc(F)c(F)c2)cn1)N(Cc1ccnc(N2CCNCC2)c1)C1C=CS(=O)(=O)C1 (centres unmarked) [I-787, 2-[4-(3,4-difluorophenyl)-1H-pyrazol-1-yl]-N-(1,1-dioxo-2,3-dihydro-1lambda6-thiophen-3-yl)-N-{[2-(piperazin-1-yl)pyridin-4-yl]methyl}acetamide]
0.5 to 5 µM | COC(C(=O)N(Cc1ccncc1)C1C=CS(=O)(=O)C1)c1ccc(-c2ccc(F)cc2)cc1 (centres unmarked) [I-144, N-(1,1-dioxo-2,3-dihydro-1lambda6-thiophen-3-yl)-2-{4′-fluoro-[1,1′-biphenyl]-4-yl}-2-methoxy-N-[(pyridin-4-yl)methyl]acetamide]
10 to 50 µM | O=C(Cc1cc(-c2ccccc2)on1)N(Cc1ccncc1)C1C=CS(=O)(=O)C1 (centres unmarked) [I-354, N-(1,1-dioxo-2,3-dihydro-1lambda6-thiophen-3-yl)-2-(5-phenyl-1,2-oxazol-3-yl)-N-[(pyridin-4-yl)methyl]acetamide]
10 to 50 µM | O=C(Cc1ccc2c(c1)CCCC2)N(Cc1ccncc1)C1C=CS(=O)(=O)C1 (centres unmarked) [I-643, N-(1,1-dioxo-2,3-dihydro-1lambda6-thiophen-3-yl)-N-[(pyridin-4-yl)methyl]-2-(5,6,7,8-tetrahydronaphthalen-2-yl)acetamide]
5 to 10 µM | CN(C)C(=O)c1ccc(CN(C(=O)Cc2ccc(-n3cccc3)cc2)C2C=CS(=O)(=O)C2)cc1 (centres unmarked) [I-259, 4-{[N-(1,1-dioxo-2,3-dihydro-1lambda6-thiophen-3-yl)-2-[4-(1H-pyrrol-1-yl)phenyl]acetamido]methyl}-N,N-dimethylbenzamide]
